Assay results reported in US20250122192A1, “5-PYRIMIDINECARBOXAMIDE DERIVATIVES AND METHODS OF USING THE SAME” (Rgenta Therapeutics, Inc., priority 2021, published 2025).
Structures can show the parent of a compound that is named as a salt.

What follows are compounds tested on PMS1 (assay: Mini-gene reporter assay-PMS1). Conditions: Homo sapiens, HEK293, PMS1 mini-gene firefly luciferase reporter transiently transfected into HEK293 cells; read-out: PMS1 IC50.
Format: cell-based
From the text: Biological Activity of the Compounds of the Present Disclosure Mini-gene reporter assay-PMS1
Mini-gene reporter constructs for each target site can be constructed by first PCR amplifying the region-of-interest including the sequence of the alternatively skipped, sequences of the immediate upstream and downstream introns, and sequences of the immediate upstream and downstream exons. Then the 3′end of the amplified sequence can be ligated to a firefly luciferase reporter gene and cloned into the pcDNA3.1 vector backbone. The final reporter construct can be transiently transfected into HEK293 cells using Lipofectamine 3000 transfection reagents. Compounds that can induce the inclusion of the skipped exon in the reporter construct would increase the reporter firefly luciferase activity.
Test compounds may be diluted in duplicates and dispensed into an assay plate. Transient mini-gene reporter cell line stock is resuspended and dispensed into the assay plate. Assay plates are then centrifuged and incubated. A luciferase reagent (e.g. ONE-Glo firefly luciferase reagent from Promega®) may be added to the assay plate and the luminescence (RLU) signals recorded. PMS1 EC50 values may be determined by curve fitting in Levenberg-Marquardt algorithm.

Row | Structure (SMILES) | IC50 [nM]
1 | CCOc1nc(N2CC[C@@H]3NCCC[C@@H]3C2)ncc1C(=O)Nc1cn2cc(C)nc2c(C)n1 (racemic) [Compound 31] | > 3000
2 | CCOc1nc(N2CC[C@H]3CN[C@H]3C2)ncc1C(=O)Nc1cc(F)c2nc(C)cn2c1 (racemic) [Compound 169] | 500 to 1000
3 | CCOc1nc(N(C)[C@@H]2CNC[C@H]2O)ncc1C(=O)Nc1cc(F)c2nc(C)cn2c1 (racemic) [Compound 174] | 1000 to 3000
4 | CCOc1nc(N2C[C@@H]3CNC[C@]3(C)C2)ncc1C(=O)Nc1cc(F)c2nc(C)cn2c1 (racemic) [Compound 179] | < 500
5 | CCOc1nc(N2CC[C@H]3CCN[C@H]3C2)ncc1C(=O)Nc1cc(F)c2nc(C)cn2c1 (racemic) [Compound 198] | 1000 to 3000
6 | CCOc1nc(N2C[C@H]3CNCC[C@H]32)ncc1C(=O)Nc1cc(F)c2nc(C)cn2c1 (racemic) [Compound 245] | < 500
7 | CCOc1nc(N2CC[C@H](NC)C2)ncc1C(=O)Nc1cc(F)c2nc(C)cn2c1 (single isomer, unassigned) [Compound 312, hydrochloride] | < 500
8 | CCOc1nc(N2CCN[C@@H](C)C2)ncc1C(=O)Nc1cc(F)c2nc(C)cn2c1 [Compound 7, 4-ethoxy-N-{8-fluoro-2-methylimidazo[1,2-a]pyridin-6-yl}-2-[(3S)-3-methylpiperazin-1-yl]pyrimidine-5-carboxamide] | 500 to 1000
9 | CCOc1nc(N2CC3CNCC3C2)ncc1C(=O)Nc1cc(F)c2nc(C)cn2c1 (stereo not shown) [Compound 8, 4-ethoxy-N-{8-fluoro-2-methylimidazo[1,2-a]pyridin-6-yl}-2-{octahydropyrrolo[3,4-c]pyrrol-2-yl}pyrimidine-5-carboxamide] | < 500
10 | CCOc1nc(N2CCNCC2)ncc1C(=O)Nc1cn2cc(C)nc2cn1 [Compound 9, 4-ethoxy-N-{2-methylimidazo[1,2-a]pyrazin-6-yl}-2-(piperazin-1-yl)pyrimidine-5-carboxamide] | 1000 to 3000
11 | CCOc1nc(N2CCCNCC2)ncc1C(=O)Nc1cc(F)c2nc(C)cn2c1 [Compound 15, 2-(1,4-diazepan-1-yl)-4-ethoxy-N-{8-fluoro-2-methylimidazo[1,2-a]pyridin-6-yl}pyrimidine-5-carboxamide] | < 500
12 | CCOc1nc(N2CCNCC2)ncc1C(=O)Nc1cn2cc(C)nc2c(C)n1 [Compound 16, N-{2,8-dimethylimidazo[1,2-a]pyrazin-6-yl}-4-ethoxy-2-(piperazin-1-yl)pyrimidine-5-carboxamide] | > 3000

Results, then the compound that gave them:

Row | IC50 [nM] | Structure (SMILES)
13 | > 3000 | CCOc1nc(N2CC[C@@H]3CNC[C@@H]3C2)ncc1C(=O)Nc1cn2cc(C)nc2c(C)n1 (racemic) [Compound 29]
14 | 500 to 1000 | CCOc1nc(N2CC[C@@H]3CNC[C@@H]32)ncc1C(=O)Nc1cn2cc(C)nc2c(C)n1 (racemic) [Compound 60]
15 | 1000 to 3000 | CCOc1nc(N2CC[C@@H]3NCC[C@@H]3C2)ncc1C(=O)Nc1cn2cc(C)nc2c(C)n1 (racemic) [Compound 90]
16 | < 500 | CCOc1nc(N2C[C@H]3CNCC[C@H]32)ncc1C(=O)Nc1cn2cc(C)nc2c(C)n1 (racemic) [Compound 95]
17 | < 500 | CCOc1nc(N2C[C@@H]3CNC[C@]3(C)C2)ncc1C(=O)Nc1cn2cc(C)nc2c(C)n1 (racemic) [Compound 98]
18 | 500 to 1000 | CCOc1nc(N2CCN[C@H]3CC[C@H]32)ncc1C(=O)Nc1cn2cc(C)nc2c(C)n1 (racemic) [Compound 101]
19 | < 500 | CCOc1nc(N2C[C@H]3CNCC[C@H]3C2)ncc1C(=O)Nc1cn2cc(C)nc2c(C)n1 (racemic) [Compound 105]
20 | > 3000 | CCOc1nc(N2CC3(CCNCC3)[C@H]3COC[C@H]32)ncc1C(=O)Nc1cc(F)c2nc(C)cn2c1 (racemic) [Compound 124]
21 | < 500 | CCOc1nc(N2CC[C@@H]3NCCC[C@@H]3C2)ncc1C(=O)Nc1cc(F)c2nc(C)cn2c1 (racemic) [Compound 139]
22 | 1000 to 3000 | CCOc1nc(N2CCO[C@H]3CNC[C@H]32)ncc1C(=O)Nc1cc(F)c2nc(C)cn2c1 (racemic) [Compound 177]
23 | < 500 | CCOc1nc(N2CCC[C@H]3NCC[C@H]32)ncc1C(=O)Nc1cc(F)c2nc(C)cn2c1 (racemic) [Compound 178]
24 | < 500 | CCOc1nc(N2CC[C@@H]3NCC[C@@H]3C2)ncc1C(=O)Nc1cc(F)c2nc(C)cn2c1 (racemic) [Compound 199]
25 | < 500 | CCOc1nc(N2CC[C@@H]3CNC[C@@H]32)ncc1C(=O)Nc1cc(F)c2nc(C)cn2c1 (racemic) [Compound 209]
26 | 1000 to 3000 | COc1nc(N2CCNCC2)ncc1C(=O)Nc1cc(F)c2nc(C)cn2c1 [Compound 1, N-(8-fluoro-2-methylimidazo[1,2-a]pyridin-6-yl)-4-methoxy-2-(piperazin-1-yl)pyrimidine-5-carboxamide, HCl]
27 | 500 to 1000 | CCOc1nc(N2CCN[C@H](C)C2)ncc1C(=O)Nc1cc(F)c2nc(C)cn2c1 [Compound 3, 4-ethoxy-N-{8-fluoro-2-methylimidazo[1,2-a]pyridin-6-yl}-2-[(3R)-3-methylpiperazin-1-yl]pyrimidine-5-carboxamide]
28 | 1000 to 3000 | CCOc1nc(N2CCN3CCCC3C2)ncc1C(=O)Nc1cc(F)c2nc(C)cn2c1 (stereo not shown) [Compound 5, 4-ethoxy-N-{8-fluoro-2-methylimidazo[1,2-a]pyridin-6-yl}-2-{octahydropyrrolo[1,2-a]pyrazin-2-yl}pyrimidine-5-carboxamide]
29 | 1000 to 3000 | CCOc1nc(N2CCN(C)CC2)ncc1C(=O)Nc1cc(F)c2nc(C)cn2c1 [Compound 6, 4-ethoxy-N-{8-fluoro-2-methylimidazo[1,2-a]pyridin-6-yl}-2-(4-methylpiperazin-1-yl)pyrimidine-5-carboxamide]
30 | > 3000 | CCOc1nc(N2CCNC(C)(C)C2)ncc1C(=O)Nc1cn2cc(C)nc2cn1 [Compound 10, 2-(3,3-dimethylpiperazin-1-yl)-4-ethoxy-N-{2-methylimidazo[1,2-a]pyrazin-6-yl}pyrimidine-5-carboxamide]
31 | < 500 | CCOc1nc(N2CCNC(CC)C2)ncc1C(=O)Nc1cc(F)c2nc(C)cn2c1 (stereo not shown) [Compound 11, 4-ethoxy-2-(3-ethylpiperazin-1-yl)-N-{8-fluoro-2-methylimidazo[1,2-a]pyridin-6-yl}pyrimidine-5-carboxamide]
32 | 1000 to 3000 | CCOc1nc(N2CCNCC2)ncc1C(=O)Nc1cc(F)c2nc(C)oc2c1 [Compound 12, 4-ethoxy-N-(4-fluoro-2-methyl-1,3-benzoxazol-6-yl)-2-(piperazin-1-yl)pyrimidine-5-carboxamide]
33 | 500 to 1000 | CCOc1nc(N2CCN[C@H](C)C2)ncc1C(=O)Nc1cc(F)c2nc(C)oc2c1 [Compound 13]
34 | < 500 | CCOc1nc(N2CC3CNCC3C2)ncc1C(=O)Nc1cc(F)c2nc(C)oc2c1 (stereo not shown) [Compound 14, 4-ethoxy-N-(4-fluoro-2-methyl-1,3-benzoxazol-6-yl)-2-{octahydropyrrolo[3,4-c]pyrrol-2-yl}pyrimidine-5-carboxamide]
35 | < 500 | CCOc1nc(N2CC3(CCNCC3)C2)ncc1C(=O)Nc1cn2cc(C)nc2c(C)n1 [Compound 17]
36 | < 500 | CCOc1nc(N2CC3(CNC3)C2)ncc1C(=O)Nc1cn2cc(C)nc2c(C)n1 [Compound 18, 2-{2,6-diazaspiro[3.3]heptan-2-yl}-N-{2,8-dimethylimidazo[1,2-a]pyrazin-6-yl}-4-ethoxypyrimidine-5-carboxamide]

Same assay, conditions: Homo sapiens, HEK293, read-out: PMS1 IC50 (nM)

Row | Structure (SMILES) | IC50 [nM]
37 | CCOc1nc(N2CCNCC2)ncc1C(=O)Nc1cc(F)c2nc(C)cn2c1 [Compound 2, 4-ethoxy-N-{8-fluoro-2-methylimidazo[1,2-a]pyridin-6-yl}-2-(piperazin-1-yl)pyrimidine-5-carboxamide] | < 500

Same assay, conditions: Homo sapiens; at 5 μM; PMS1 mini-gene firefly luciferase reporter in HEK293 cells; read-out: PMS1% Effect at 5 μM

Row | Structure (SMILES) | activation at 5 µM [%]
38 | CCOc1nc(N2CCO[C@H]3CNC[C@H]32)ncc1C(=O)Nc1cn2cc(C)nc2c(C)n1 (racemic) [Compound 93] | < 50
39 | CCOc1nc(N2CC[C@@H]3NCC(=O)N[C@@H]3C2)ncc1C(=O)Nc1cc(F)c2nc(C)cn2c1 (racemic) [Compound 170] | < 50
40 | CCOc1nc(N2CCNC(CC(F)F)C2)ncc1C(=O)Nc1cc(F)c2nc(C)cn2c1 (single isomer, unassigned) [Compound 309] | 50 to 75
41 | CCOc1nc(N2CC[C@@H](NC)C2)ncc1C(=O)Nc1cc(F)c2nc(C)cn2c1 (single isomer, unassigned) [Compound 311, hydrochloride] | > 75
42 | CCOc1nc(N2CCN[C@@H](C)C2)ncc1C(=O)Nc1cn2cc(C)nc2c(C)n1 [Compound 19, N-{2,8-dimethylimidazo[1,2-a]pyrazin-6-yl}-4-ethoxy-2-[(3S)-3-methylpiperazin-1-yl]pyrimidine-5-carboxamide] | 50 to 75

Same assay, conditions: PMS1 mini-gene firefly luciferase reporter transiently transfected into HEK293 cells; hydrochloride; read-out: PMS1 IC50

Row | IC50 [nM] | Structure (SMILES)
43 | 500 to 1000 | CCOc1nc(N2C[C@@H](C)N[C@@H](C)C2)ncc1C(=O)Nc1cc(F)c2nc(C)cn2c1 [Compound 4, 2-[(3R,5S)-3,5-dimethylpiperazin-1-yl]-4-ethoxy-N-{8-fluoro-2-methylimidazo[1,2-a]pyridin-6-yl}pyrimidine-5-carboxamide hydrochloride]
